From patent publication US20240041038A1 (priority 2020, published 2024)
Bridges are numbered along the chain shown (N, C = ends). Where no end group is shown, it is not given here.

What was measured:
[1] = system: lesser mealworm (Alphitobius diaperinus); experiment: whole plant or invertebrate; conditions: 96 h, read-out: mortality rate
[2] = system: beet armyworm (Spodoptera exigua); conditions: in vivo
[3] = system: corn earworm (Helicoverpa zea); conditions: in vivo
[4] = system: corn earworm (Helicoverpa zea); conditions: in vivo; remark: listed apart in the source

OB(O)O [boric acid]
mortality at 2500 µg/mL [1]: 10.3%

GSCADINGACKSDCDCCGDSVTCDCYWSDSCKCRESNFKIGMAIRKKFC (disulfide 3-17, 10-23, 14-49, 16-33, 25-31) [Γ-CNTX-Pn1a]
mortality [2]: 6%
mortality rate [2]: 3%

C/C=C(\C)C(=O)O[C@H]1C[C@@H](OC(C)=O)[C@@]2(C(=O)OC)CO[C@H]3[C@@H](O)[C@@](C)([C@]45O[C@@]4(C)[C@H]4C[C@@H]5O[C@@H]5OC=C[C@@]54O)[C@H]4[C@]1(CO[C@]4(O)C(=O)OC)[C@@H]32 [Azadirachtin]
mortality [3]: 37.5%

O=C(NC(=O)c1c(F)cccc1F)Nc1ccc(OC(F)(F)C(F)OC(F)(F)F)c(Cl)c1 (centres unmarked) [Novaluron]
greater than additive insecticidal effect when combined with U+2-ACTX-Hv1a [4]: Novaluron*
